Structures can show the parent of a compound that is named as a salt. Where two headings read alike, the source gives them in different places.
What was measured:
[1] = target: T1, glycine binding site on the NMDA receptor (Rattus norvegicus, UniProt P35439); test: Inhibition of [3H]-DCKA (3H-5,7-dichlorokynurenic acid) binding to the glycine binding site on the NMDA receptor, rat brain membranes
T1 construct: membrane preparations from rat brain; from tissue; host or cells: rat brain membranes
Experimental: In order to determine the unspecific binding, the corresponding ligands with concentrations of 1 mM glycine and, respectively, 1 mM glutamate are added. Membrane-bound radioligand is separated from non-bound ligands by centrifugation (15 min, at 40 000 kg; ^3 H-DCKA) or filtration (combination of Whatmann GF/C and GF/B filters; ^3 H-AMPA).
The described substances are used in the binding experiments in different concentrations. The concentrations which inhibited 50% of the binding were determined on the basis of dosage-activity curves for the inhibition of the binding of the corresponding radioligands.

[2] = target: glutamate binding site on the kainate/AMPA receptor; test: Inhibition of [3H]-AMPA binding to the glutamate binding site on the kainate/AMPA receptor, rat brain membranes; conditions: 10 nM ^3 H-AMPA; membrane preparations from rat brain; unspecific binding with 1 mM glutamate; filtration
Experimental: Carefully washed membrane preparations from rat brain are used for the binding studies. The radioligands are used with concentrations of 20 nM ^3 H-DCKA and, respectively, 10 nM ^3 H-AMPA.
In order to determine the unspecific binding, the corresponding ligands with concentrations of 1 mM glycine and, respectively, 1 mM glutamate are added. Membrane-bound radioligand is separated from non-bound ligands by centrifugation (15 min, at […]; ^3 H-DCKA) or filtration (combination of Whatmann GF/C and GF/B filters; ^3 H-AMPA).
The described substances are used in the binding experiments in different concentrations.

[3] = 20 nM ^3 H-DCKA, membrane preparations from rat brain, unspecific binding with 1 mM glycine, centrifugation, read-out: [^3 H]-DCKA IC50

IC50 [1, 3] | IC50 [2] | Structure (SMILES) | IC50 [1]
0.189 µM | 1.48 µM | O=c1[nH]nc2c3ccc(I)cc3[nH]c(=O)n12 [Example 9, 8-Iodo-2,3,5,6-tetrahydro-1,2,4-triazolo[4,3-c]quinazoline-3,5-dione] | –
8.54 µM | 0.296 µM | O=c1[nH]nc2c3cc(N4CCOCC4)c([N+](=O)[O-])cc3[nH]c(=O)n12 [Example 34, 9-morpholin-4-yl-8-nitro-2,3,5,6-tetrahydro-1,2,4-triazolo[4,3-c]quinazoline-3,5-dione] | –
0.36 µM | 0.189 µM | O=c1[nH]nc2c3cc(F)c([N+](=O)[O-])cc3[nH]c(=O)n12 [Example 27, 9-Fluoro-8-nitro-2,3,5,6-tetrahydro-1,2,4-triazolo[4,3-c]quinazoline-3,5-dione] | –
0.043 µM | 0.082 µM | O=c1nc2c3cc(Cl)c([N+](=O)[O-])cc3[nH]c(=O)n2[nH]1 [Example 26, 9-Chloro-8-nitro-1-yl-2,3,5,6-tetrahydro-[1,2,4]triazolo[1,5-c]quinazoline-2,5-dione sodium salt] | –
0.322 µM | 1.17 µM | O=c1[nH]nc2c3ccc(Br)cc3[nH]c(=O)n12 [Example 8, 8-Bromo-2,3,5,6-tetrahydro-1,2,4-triazolo[4,3-c]quinazoline-3,5-dione] | –
0.342 µM | 0.047 µM | CN(C)c1cc2c(cc1[N+](=O)[O-])[nH]c(=O)n1c(=O)[nH]nc21 [Example 30, 9-Dimethylamino-8-nitro-2,3,5,6-tetrahydro-1,2,4-triazolo[4,3-c]quinazoline-3,5-dione] | –
0.359 µM | 0.362 µM | O=c1[nH]nc2c3cc([N+](=O)[O-])c(Cl)cc3[nH]c(=O)n12 [Example 24, 8-Chloro-9-nitro-2,3,5,6-tetrahydro-1,2,4-triazolo[4,3-c]quinazoline-3,5-dione] | –
0.18 µM | 2.37 µM | COc1ccc2c(c1)[nH]c(=O)n1c(=O)[nH]nc21 [Example 17, 8-Methoxy-2,3,5,6-tetrahydro-1,2,4-triazolo[4,3-c]quinazoline-3,5-dione] | –
2.56 µM | 0.016 µM | O=c1nc2c3cc(-n4ccnc4)c([N+](=O)[O-])cc3[nH]c(=O)n2[nH]1 [Example 36, 9-Imidazol-1-yl-8-nitro-2,3,5,6-tetrahydro-[1,2,4]-triazolo[1,5-c]quinazoline-2,5-dione] | –
0.909 µM | – | O=c1[nH]ncc2c1c(O)nc1cc(Cl)ccc12 [Example 43, 8-Chloro-5-hydroxy-3,4-dihydro-pyridazino [4,5-c]quinolin-4-one] | –
0.202 µM | 1.25 µM | O=c1[nH]nc2c3cc(F)c(Cl)cc3[nH]c(=O)n12 [Example 10, 8-Chloro-9-fluoro-2,3,5,6-tetrahydro-1,2,4-triazolo[4,3-c]quinazoline-3,5-dione] | –
0.459 µM | 0.421 µM | O=c1[nH]oc2c1c(=O)[nH]c1cc([N+](=O)[O-])ccc12 [Example 55, 7-nitro-2,3,4,5-tetrahydro-isoxazol-[4,5-c]quinoline-3,4-dione] | –
0.193 µM | 7.31 µM | O=c1[nH][nH]c2c1c(O)nc1cc(Cl)ccc12 [Example 48, 7-Chloro-4-hydroxy-2,3-dihydro-1H-pyrazolo[4,3-c]quinolin-3-one] | –
0.05 µM | 0.05 µM | O=c1[nH]nc2c3cc(Cl)c([N+](=O)[O-])cc3[nH]c(=O)n12 [Example 25, 9-Chloro-8-nitro-2,3,5,6-tetrahydro-1,2,4-triazolo[4,3-c]quinazoline-3,5-dione] | –
0.079 µM | 0.62 µM | O=c1[nH]nc2c3c(Cl)cc(Cl)cc3[nH]c(=O)n12 [Example 12, 8,10-Dichloro-2,3,5,6-tetrahydro-1,2,4-triazolo[4,3-c]quinazoline-3,5-dione] | –
0.432 µM | 1.75 µM | O=c1[nH]nc2c3ccc(Cl)cc3[nH]c(=O)n12 [Example 3, 8-Chloro-2,3,5,6-tetrahydro-1,2,4-triazolo[4,3-c]quinazoline-3,5-dione] | –
3.6 µM | 0.163 µM | O=c1[nH]nc2c3cc(N4CCCC4)c([N+](=O)[O-])cc3[nH]c(=O)n12 [Example 32, 8-Nitro-9-pyrrolidin-1-yl-2,3,5,6-tetrahydro-1,2,4-triazolo-[4,3-c]quinazoline-3,5-dione] | –
0.068 µM | 0.071 µM | O=c1[nH]nc2c3cc(Br)c([N+](=O)[O-])cc3[nH]c(=O)n12 [Example 38, 9-Bromo-8-nitro-2,3,5,6-tetrahydro-1,2,4-triazolo[4,3-c]quinazoline-3,5-dione] | –
0.132 µM | 2.31 µM | Cc1cc2[nH]c(=O)n3c(=O)[nH]nc3c2cc1C [Example 14, 8,9-Dimethyl-2,3,5,6-tetrahydro-1,2,4-triazolo[4,3-c]quinazoline-3,5-dione] | –
0.71 µM | 8.16 µM | O=c1[nH]nc2c3ccc(F)cc3[nH]c(=O)n12 [Example 6, 8-Fluoro-2,3,5,6-tetrahydro-1,2,4-triazolo[4,3-c]quinazoline-3,5-dione] | –
0.69 µM | 0.243 µM | O=c1[nH]nc2c3ccc([N+](=O)[O-])cc3[nH]c(=O)n12 [Example 21, 8-Nitro-2,3,5,6-tetrahydro-1,2,4-triazolo[4,3-c]quinazoline-3,5-dione] | –
1.32 µM | 8.59 µM | Nc1cc2c(cc1Cl)[nH]c(=O)n1c(=O)[nH]nc21 [Example 29, 9-amino-8-chloro-2,3,5,6-tetrahydro-1,2,4-triazolo[4,3-c]quinazoline-3,5-dione hydrochloride] | –
0.379 µM | 1.01 µM | O=c1[nH]nc2c3ccc(C(F)(F)F)cc3[nH]c(=O)n12 [Example 23, 8-Trifluoromethyl-2,3,5,6-tetrahydro-1,2,4-triazolo[4,3-c]quinazoline-3,5-dione] | –
0.266 µM | 0.02 µM | O=c1[nH]oc2c1c(=O)[nH]c1cc(Cl)ccc12 [Example 56, 7-Chloro-2,3,4,5-tetrahydro-isoxazolo[4,5-c]quinoline-3,4-dione] | –
0.073 µM | 1.37 µM | O=c1[nH][nH]c2c1c(O)nc1cc(Cl)c(Cl)cc12 [Example 49, 7,8-Dichloro-4-hydroxy-2,3-dihydro-1H-pyrazolo[4,3-c]quinolin-3-one] | –
0.031 µM | 0.66 µM | O=c1[nH]nc2c3cc(Cl)c(Cl)cc3[nH]c(=O)n12 [Example 11, 8,9-Dichloro-2,3,5,6-tetrahydro-1,2,4-triazolo[4,3-c]quinazoline-3,5-dione] | –

Structure (SMILES) | IC50 [1, 3] | IC50 [2] | IC50 [1]
O=c1[nH]nc2c3cc([N+](=O)[O-])c([N+](=O)[O-])cc3[nH]c(=O)n12 [Example 37, 8,9-Dinitro-2,3,5,6-tetrahydro-1,2,4-triazolo[4,3-c]quinazoline-3,5-dione] | – | 0.117 µM | 0.64 µM
O=c1nc2c3cc(N4CCCC4)c([N+](=O)[O-])cc3[nH]c(=O)n2[nH]1 [sodium salt] | 3.06 µM | 0.336 µM | –

Source: patent US5688803A, “Tricyclic dicarbonyl derivatives” (Hoffmann-La Roche Inc., priority 1994, dated 1997)
